Test results as given in patent US8592443B2, “Use of 4 cyclopropylmethoxy-N-(3,5 dichloro-1 oxido-pyridin-4 yl)-5-(methoxy)pyridine-2-carboxamide for the treatment of spinal cord traumas” (Sanofi, priority 2007, dated 2013).

Assays:
ferret = experiment: Evaluation of emetic effects in the ferret; assay type: in vivo; conditions: observed up to 6 hours after administration; for Emetic effects (vomiting): ferrets
Protocol: The emetic capacity of 4-cyclopropylmethoxy-N-(3,5-dichloro-1-oxidopyridin-4-yl)-5-(methoxy)pyridine-2-carboxamide was evaluated in the ferret. Two groups of ferrets were used, the first being given the carrier (PEG 200) and the second being given 4-cyclopropyl-methoxy-N-(3,5-dichloro-1-oxidopyridin-4-yl)-5-(methoxy)pyridine-2-carboxamide in solution in the carrier (PEG 200), by oral gavage, at doses of 0.05 mg/kg and 0.1 mg/kg. The animals were observed continually for the 2 hours following administration and then every hour up to 6 hours after administration. The clinical signs (in particular retching and vomiting) were noted.
The emetic capacity of […] was evaluated in the ferret. Two groups of ferrets were used, the first receiving the carrier (PEG200) and the second receiving […] in solution in the carrier (PEG200), by oral gavage, at doses of 0.05 mg/kg and 0.1 mg/kg. The animals were observed continually for the 2 hours following administration and then every hour up to 6 hours after administration. The clinical signs were noted.

[1] = tested on: model of spinal trauma in the mouse; experiment: Beam balance test in a model of spinal trauma in the mouse; assay type: in vivo; conditions: for Travel time (% deficiency): 0.01 mg/kg po at +4 h then daily; for Travel time (% deficiency) / Travel time (% motor function deficiency): 100% = trauma + carrier; for Balance beam test result (time to reach the opposite end of the beam): 0.01 mg/kg orally 4 h after lesion then daily, OF1 mice; for Travel time (% motor function deficiency): 0.03 mg/kg po at +4 h and +6 h then daily
Protocol: The effects of 4-cyclopropylmethoxy-N-(3,5-dichloro-1-oxidopyridin-4-yl)-5-(methoxy)pyridine-2-carboxamide used according to the invention were evaluated in a model of spinal trauma in the mouse using the beam balance test (P. Barnéoud, NeuroReport 1997, 8, 2861-2865).
The Beam Balance test consists in placing the mouse at the end of a horizontal beam 30 cm long and 1.5 cm wide, raised 20 cm above the ground. The time required for the mouse to reach the opposite end of the beam is measured. The test is stopped after 12 seconds.
[…] female OF1 mice (Iffa Credo Lyon, France) weighing 12 to 14 g are placed in experimental cages (32×21×14 cm) provided with an endless supply of food and water, at the controlled temperature of 22±1° C.
The mice are subjected to a pre-learning phase which allows them to become familiar with the evaluation test and allows them to reach an optimal and identical level of performance.
The animals are subsequently divided up into three groups, and then a trauma is induced in a controlled manner in two of the three groups of mice before the beginning of the test phase.
This trauma consists of a lesion of the spinal cord located at the level of the thoracic vertebra Th8. The lesion is generated by 3 successive cycles of freezing-thawing by applying liquid nitrogen.
The functional consequences of the trauma are then measured at days 2, 7, 14 and 21 and also at day 28.
The following groups were formed: • Group 1 (no trauma) is composed of control animals which are not subjected to any trauma. • Group 2 (trauma alone) is composed of traumatized animals to which one dose per day of carrier (methyl-cellulose (MC) (0.6%) +tween-80 (0.5%) in water) is administered. • Group 3 (trauma+active ingredient 0.01 mg/kg at +4 hours) receives a solution containing 4-cyclopropylmethoxy-N-(3,5-dichloro-1-oxidopyridin-4-yl)-5-(methoxy)pyridine-2-carboxamide (0.01 mg/kg) in the carrier (MC (0.6%)+tween-80 (0.5%) in water), orally, 4 hours after the lesion, and then daily, orally, for 4 weeks after the trauma.
An experiment similar to that of Example 1 was carried out by administering ((4R)-4-[3-(cyclopentyloxy)-4-methoxyphenyl]pyrrolidine-2-one) to 34-week-old OF1 mice (Charles River, France) weighing 12 to 14 g, in the treatment of spinal cord traumas.
The mice were tested in the beam balance test, according to operating conditions identical to those described above.
The following groups were formed: • Group A (no trauma) is composed of control animals which are not subjected to any trauma. • Group B (trauma alone) is composed of traumatized animals to which one dose per day of carrier (2% PEG 200) is administered. • Group C (trauma+active ingredient 0.03 mg/kg at +4 hours) receives a solution containing (R)-(−)-Rolipram (0.03 mg/kg) in the carrier (2% PEG 200), orally, 4 hours and 6 hours after the lesion, and then daily, orally, for 4 weeks after the trauma.
The results obtained for each group of mice are expressed as percentage (%) deficiency of motor functions in the traumatized mice compared with the non-traumatized mice:
To do this, the difference in time taken between the group of mice tested to which (R)-(−)-Rolipram was administered (group C) and the group of non-traumatized mice (group A) is measured and expressed as a percentage relative to the difference in time taken between the traumatized mice to which one dose per day of carrier was administered (group B) and the time taken by the non-traumatized mice (group A). This ratio therefore gives the percentage deficiency in motor functions of the traumatized mice compared with the non-traumatized mice.
This calculation of the percentage deficiency of the mice tested is performed according to the following formula: % deficiency of group (c)=[(mean of the travel time of group C)−(mean of the travel time of group A)]/[(mean of the travel time of group B)−(mean of the travel time of group A)]

COc1cnc(C(=O)Nc2c(Cl)c[n+]([O-])cc2Cl)cc1OCC1CC1 [4-cyclopropylmethoxy-N-(3,5-dichloro-1-oxidopyridin-4-yl)-5-(methoxy)pyridine-2-carboxamide]
Emetic effects (retching and vomiting) (ferret; 0.1 mg/kg by oral gavage in PEG 200, 5 ferrets): no retching or vomiting
Degree of motor function deficiency compared with (R)-(−)-Rolipram ([1]; 0.01 mg/kg po versus (R)-(−)-Rolipram 0.03 mg/kg po, traumatized mice): less than that of the animals treated with (R)-(−)-Rolipram
Travel time (% deficiency) ([1]; D + 2, 0% = no trauma): 84%
Balance beam test result (time to reach the opposite end of the beam) ([1]; D + 2 after trauma, test stopped after 12 seconds): 10.71 s
Travel time (% deficiency) ([1]; D + 7, 0% = no trauma): 72%
Balance beam test result (time to reach the opposite end of the beam) ([1]; D + 7 after trauma): 8.67 s
Travel time (% deficiency) ([1]; D + 14, 0% = no trauma): 49%
Balance beam test result (time to reach the opposite end of the beam) ([1]; D + 14 after trauma): 6.35 s
Travel time (% deficiency) ([1]; D + 21, 0% = no trauma): 60%
Balance beam test result (time to reach the opposite end of the beam) ([1]; D + 21 after trauma): 6.17 s
Travel time (% deficiency) ([1]; D + 28, 0% = no trauma): 44%
Balance beam test result (time to reach the opposite end of the beam) ([1]; D + 28 after trauma): 5.18 s
Travel time (% deficiency) ([1]; Mean of D + 2 to D + 28): 62%
Re-establishment of motor functions versus non-treated traumatized animals ([1]; traumatized mice, curative administration (group 3 vs group 2)): better re-establishment in terms of motor functions

COc1ccc([C@@H]2CNC(=O)C2)cc1OC1CCCC1 [(R)-(−)-Rolipram, ((4R)-4-[3-(cyclopentyloxy)-4-methoxyphenyl]pyrrolidine-2-one), reference compound]
Emetic effects (vomiting) (ferret; 0.05 mg/kg by oral gavage in PEG200): induces vomiting
Emetic effects (vomiting) (ferret; 0.1 mg/kg by oral gavage in PEG200): induces vomiting
Travel time (% motor function deficiency) ([1]; D + 2, 0% = no trauma): 110%
Travel time (% motor function deficiency) ([1]; D + 7, 0% = no trauma): 67%
Travel time (% motor function deficiency) ([1]; D + 14, 0% = no trauma): 48%
Travel time (% motor function deficiency) ([1]; D + 21, 0% = no trauma): 122%
Travel time (% motor function deficiency) ([1]; D + 28, 0% = no trauma): 108%
Travel time (% motor function deficiency) ([1]; Mean of D + 2 to D + 28): 91%
